Experimental data taken from ChEMBL document CHEMBL1201862, “PubChem BioAssay data set” (2004).
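Test compounds were applied to cells in 96-well plates for 48 hours at 5 doses. GI50: concentration for 50% inhibition of growth.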 Calls of active or inactive are those of the source. Cut-off read from the data, not from the text of the source: active = GI50 up to about 1.1 µM and inactive = higher.

Key:
Assay in all cases: growth of human tumour cells (NCI), 48 h
SF-539 = test system: SF-539
HL-60 = test system: HL-60
M14 = test system: M14
SK-MEL-2 = test system: SK-MEL-2
TK-10 = test system: TK-10
SNB-19 = test system: SNB-19
DU-145 = test system: DU-145
MDA-MB-435 = test system: MDA-MB-435
NCI-H23 = test system: NCI-H23
SR = test system: SR
UACC-257 = test system: UACC-257
NCI-H522 = test system: NCI-H522
HCC 2998 = test system: HCC 2998
MDA-MB-231 = test system: MDA-MB-231
786-0 = test system: 786-0
SK-MEL-28 = test system: SK-MEL-28
ACHN = test system: ACHN
SF-268 = test system: SF-268
LOX IMVI = test system: LOX IMVI
HCT-15 = test system: HCT-15

SMILES | GI50 (SF-539) | GI50 (HL-60) | GI50 (M14) | GI50 (SK-MEL-2) | GI50 (TK-10) | GI50 (SNB-19) | GI50 (DU-145) | GI50 (MDA-MB-435) | GI50 (NCI-H23) | GI50 (SR) | GI50 (UACC-257) | GI50 (NCI-H522) | GI50 (HCC 2998) | GI50 (MDA-MB-231) | GI50 (786-0) | GI50 (SK-MEL-28) | GI50 (ACHN) | GI50 (SF-268) | GI50 (LOX IMVI) | GI50 (HCT-15) [µM]
Cc1[nH]c(=O)[nH]c(=O)c1N(CCF)CCCl [FLUORODOPAN] | 199 µM (inactive) | 70.8 µM (inactive) | 381 µM (inactive) | 432 µM (inactive) | 495 µM (inactive) | 316 µM (inactive) | 582 µM (inactive) | 419 µM (inactive) | 348 µM (inactive) | 79.6 µM (inactive) | 443 µM (inactive) | 143 µM (inactive) | 353 µM (inactive) | 362 µM (inactive) | 451 µM (inactive) | 420 µM (inactive) | 190 µM (inactive) | 290 µM (inactive) |  | 
NNC(=O)CC(=O)Nc1ccc(Cl)cc1 | > 100 µM (inactive) | > 100 µM (inactive) |  | > 100 µM (inactive) | > 100 µM (inactive) | > 100 µM (inactive) | > 100 µM (inactive) | > 100 µM (inactive) | > 100 µM (inactive) | > 100 µM (inactive) | > 100 µM (inactive) | > 100 µM (inactive) | > 100 µM (inactive) | > 100 µM (inactive) | > 100 µM (inactive) | > 100 µM (inactive) | 66.7 µM (inactive) | > 100 µM (inactive) | 34.1 µM (inactive) | 34.7
O=C(NC(=O)c1ccccc1[N+](=O)[O-])Nc1ccc(Oc2ncc(Cl)cn2)c([N+](=O)[O-])c1 | 0.233 µM (active) | 0.0299 µM (active) | 0.175 µM (active) | 0.127 µM (active) | > 100 µM (inactive) | 2.02 µM (inactive) | 0.291 µM (active) | 0.0214 µM (active) | 0.411 µM (active) | 0.0638 µM (active) | 0.431 µM (active) | 0.115 µM (active) | 0.426 µM (active) | 0.281 µM (active) | 0.225 µM (active) |  | 0.641 µM (active) | 0.327 µM (active) | 0.895 µM (active) | 0.0855
Nc1nc(NCCCO)cc(=O)[nH]1 |  | > 100 µM (inactive) | > 100 µM (inactive) | > 100 µM (inactive) |  | > 100 µM (inactive) | > 100 µM (inactive) | > 100 µM (inactive) | > 100 µM (inactive) | > 100 µM (inactive) | > 100 µM (inactive) | > 100 µM (inactive) | > 100 µM (inactive) | > 100 µM (inactive) | > 100 µM (inactive) | > 100 µM (inactive) | > 100 µM (inactive) | > 100 µM (inactive) | > 100 µM (inactive) | > 100
